“And” between values parts separate entries of the source, which are not always exact repeats. Equal entries are not always repeated.
Assays:
[1] = test system: Normal human epidermal keratinocytes (NHEK); assay: Lipid peroxidation in NHEK under UV stimulation (C11-fluor probe, flow cytometry); format: cell-based; conditions: for % Irradiated control (lipid peroxidation) / % Protection (lipid peroxidation) / C11-fluor 1/GMFI Mean (AU) / C11-fluor 1/GMFI (AU) / C11-fluor GMFI (AU): irradiated UVB 300 mJ/cm^2 (+UVA 2.1 J/cm^2); for C11-fluor 1/GMFI (AU) / C11-fluor GMFI (AU): individual replicates
Experimental: Normal human epidermal keratinocytes were seeded in 48-well plates and cultured in culture medium for 24 hours and then in assay medium for a further 24 hours. The medium was then removed and replaced by assay medium containing or not (irradiated control) the test compounds or the reference (BHA—butylated hydroxyanisole, lipid peroxidation inhibitor—at 100 μM) and the cells were pre-incubated for 24 hours. After pre-incubation, the specific fluorescent probe for the measurement of lipid peroxides (C11-fluor) was added and the cells were incubated for 45 minutes. Then, the medium was removed and replaced by assay medium containing or not (irradiated control and test compound conditions) the reference and the cells were irradiated with UVB (+UVA)−300 mJ/cm^2 (+2.1 J/cm^2). The lamp used was a SOL500 Sun Simulator equipped with an H2 filter (Dr. Hbnle. AG). After irradiation, the medium was removed and replaced by assay medium containing or not (irradiated control) the test compounds or the reference and the cells were incubated for 30 minutes before flow cytometry analysis. A non-irradiated control condition was performed in parallel. All experimental conditions were performed in triplicate.
At the end of the incubation, in each well, the cells were trypsinized and transferred into specific tubes for the analysis of C11-fluor fluorescence intensity using a BD FACSVerse™ flow cytometer (acquisition of 2000 to 5000 events per tube). The C11-fluor fluorescent probe is a lipid analogue which integrates cell membranes. As the fluorescence intensity of this probe is decreased with oxidation, it is inversely proportional to the lipid peroxidation. In order to facilitate the result interpretation, the lipid peroxidation was expressed using the value “1/fluorescence intensity” in order to have a direct proportionality between the induction of lipid peroxidation and the values of “% of irradiated control”.
Results presented in Table 24 are expressed as fluorescence intensity and as […] of protection compared to the control.

[2] = test system: normal human dermal fibroblasts (NHDF); assay: Signalling pathway analysis (Ingenuity Pathway Analysis, activation z-score); conditions: for Activation z- score: 2 mg/ml on NHDF
Description: • Results are considered and presented per gene (and not probe). A probe set is a collection of probes designed to interrogate a given sequence of a gene. […] Gene Ontology database has been more specifically used for the data interpretation. DAVID functional annotation part was used to cluster modulated genes into significant biological processes. […] DAVID database uses the Gene Ontology consortium (http://www.geneontology.org) vocabularies (GO terms) to describe gene products in terms of their associated biological processes. Among them, only biological processes with p-value ≤0.05 were taken into account. • Signal transduction pathway analsis: The results were then processed with IPA (Ingenuity Pathway Analysis, Qiagen®) software to identify signal transduction pathways modulated by each treatment. This software takes into account the Fold Change values of each gene and, when there is enough information, the direction of modulation of the signal transduction pathways can be identified. The relevance of the effect of each treatment on a given pathway was quantified by z-score. The z-score predicts the directional change on that effect.
A more advanced bioinformatics analysis was performed using the Ingenuity Pathway Analysis software (IPA from Qiagen®). This analysis allows the identification of the impacted signalling pathways and predicts their modulation. The modulation is a stimulation when the Activation z-score is a positive value (Table 11) and an inhibition when the Activation z-score is a negative value (Table 12).

human preadipocytes [3] = assay: Proliferation of preadipocytes in inflammatory condition (DAPI nuclei staining); format: cell-based; conditions: for Cells number at the end of the culture (DAPI staining), Values: individual values; for Cell number (DAPI staining): preadipocytes, inflammatory conditions (AcMC), AcMC control 12 819 AU
Experimental: (§1) Preadipocytes have been isolated from human female hypodermis (body mass index <30 kg/m2 and <45 years old). Preadipocytes have been cultured for 24 h in 100 μl of DMEM-10% Fetal Bovine Serum (FBS) in 96-well plates. Then cells were treated to induce their differentiation in a classical or an inflammatory environment for 13 days.
(§2) To induce the preadipocytes differentiation cells were incubated in a proadipogenic cocktail (PAC) including insulin, glucocorticoid, 3-isobutyl-1-methylxanthine (IBMX), and thiazolinedione in DMEM.
(§3) To induce a fibro-inflammatory environment, cells were treated with an activated human macrophage-conditioned medium (AcMC) prepared in RPMI medium. A treatment with Dexamethasone (DXM) at 100 nM was used as anti-inflammatory response control. At D0: preadipocytes have been treated in the following conditions: • “Undifferentiation”: DMEM+¼ RPMI medium • “Differentiation”: PAC+¼ RPMI medium • “AcMC” i.e. inflammatory condition: PAC+¼ AcMC • “AcMC+DXM”: PAC+[…] AcMC+anti-inflammatory DXM at 100 nM • “AcMc+compounds”: PAC+14 AcMC+compounds to be tested
(§4) All conditions have been performed in triplicate. The medium has been changed every 2 days for 13 days.
(§5) The number of cells was determined for each condition by DAPI nuclei staining (nuclei) and expressed in arbitrary unit.

human preadipocytes [4] = assay: Proliferation of preadipocytes in classical differentiation conditions (DAPI nuclei staining); format: cell-based; conditions: 2 mg/ml; for Cells number at the end of the culture, DAPI staining, Mean: differentiated control 10 118 AU
Experimental: as §1, §2, §3, §4, §5

procollagen I = assay: Extracellular secretion of procollagen I by preadipocytes in inflammatory condition (ELISA); format: cell-based, human; conditions: for Procollagen I secretion, Mean / Procollagen I secretion, Values: normalized by cells number (DAPI); for Procollagen I secretion, Values: individual values; for Procollagen I secretion compared to the AcMC control condition fixed at 100%: preadipocytes
Experimental: as §1, §2, §3, §4
At D14: during the last 24 h of culture, the medium has been replaced by DMEM/F12 medium in all conditions, to collect cells' secretions.
After 13 days, the 24 h culture media of the different conditions have been collected at the end of the treatment period. The concentrations of IL-6, procollagen I and MCP1 have been evaluated by ELISA assays using specific kits (for IL-6: DY206, DuoSet ELISA, R&D Systems; for Procollagen I: DY6220-05, DuoSet ELISA, R&D Systems; for MCP1: DY279-05 DuoSet ELISA, R&D Systems) according to the manufacture's recommendations. Values have been normalized to the cell number determined by DAPI staining.
Extracellular secretions of procollagen I by preadipocytes in inflammatory condition Quantity of procollagen secreted in medium was measured and normalized by cell number in each culture condition. Data are represented in percentage of proinflammatory control conditions (AcMC condition).

N[C@H]1CCCN(CC(F)(F)[C@]2(O)O[C@H](CO)[C@H](O)[C@H](O)[C@H]2O)C1=O [Compound 6]
% Irradiated control (lipid peroxidation) ([1]; 1 mg/ml): 66% | % Protection (lipid peroxidation) ([1]; 1 mg/ml): 37% | C11-fluor 1/GMFI Mean (AU) ([1]; 1 mg/ml): 5.6E−04 AU | C11-fluor 1/GMFI (AU) ([1]; 1 mg/ml): 4.7E−04 AU and 5.9E−04 AU and 6.2E−04 AU | C11-fluor GMFI (AU) ([1]; 1 mg/ml): 2118 AU and 1705 AU and 1608 AU | % Irradiated control (lipid peroxidation) ([1]; 3 mg/ml): 65% | % Protection (lipid peroxidation) ([1]; 3 mg/ml): 38% | C11-fluor 1/GMFI Mean (AU) ([1]; 3 mg/ml): 5.6E−04 AU | C11-fluor 1/GMFI (AU) ([1]; 3 mg/ml): 4.7E−04 AU and 5.1E−04 AU and 7.0E−04 AU | C11-fluor GMFI (AU) ([1]; 3 mg/ml): 2143 AU and 1970 AU and 1426 AU | Protection on lipid peroxidation (compared to the control) ([1]; NHEK irradiated with UVB (+UVA) 300 mJ/cm2 (+2.1 J/cm2), concentration not given): 38% | Activation z- score ([2]; Diseases or Functions Annotation: Differentiation of adipocytes): 0.545 | Activation z- score ([2]; Diseases or Functions Annotation: Metabolism of cholesterol): 1.421 | Activation z- score ([2]; Diseases or Functions Annotation: Synthesis of cholesterol): 0.998 | Activation z- score ([2]; Diseases or Functions Annotation: Synthesis of lipids, z-score >0 = increased): 1.380 | Regulation of fibrogenesis, tensile strength of skin, synthesis of ROS, inflammatory response and chronic inflammatory disorder at a transcriptional level ([2]; treatment of NHDF): down regulation | Regulation of lipid and cholesterol synthesis and differentiation of adipocytes at a transcriptional level ([2]; treatment of NHDF): up regulation | Cells number at the end of the culture, DAPI staining, Mean (human preadipocytes [3]; AcMC + 1 mg/ml): 18154 AU | Cells number at the end of the culture (DAPI staining), Values (human preadipocytes [3]; AcMC + 1 mg/ml): 18502 AU and 17976 AU and 17985 AU | Cells number at the end of the culture, DAPI staining, Mean (human preadipocytes [3]; AcMC + 2 mg/ml): 20147 AU | Cells number at the end of the culture (DAPI staining), Values (human preadipocytes [3]; AcMC + 2 mg/ml): 20261 AU and 20369 AU and 19811 AU | Cell number (DAPI staining) (human preadipocytes [3]; 1 mg/ml): 18 154 AU | Cell number (DAPI staining) (human preadipocytes [3]; 2 mg/ml): 20 147 AU | Cells number at the end of the culture, DAPI staining, Mean (human preadipocytes [4]): 13197 AU | Cells number at the end of the culture, DAPI staining, Mean (human preadipocytes [4]; listed as compound 6): 13 197 AU | Cells number at the end of the culture (DAPI staining), Values (human preadipocytes [4]; single replicates): 13454 AU and 12839 AU and 13298 AU | Procollagen I secretion, Mean (procollagen I; AcMC + 1 mg/ml): 49.9 % of AcMC condition | Procollagen I secretion, Values (procollagen I; AcMC + 1 mg/ml): 39.3 % of AcMC condition and 57.7 % of AcMC condition and 52.7 % of AcMC condition | Procollagen I secretion, Mean (procollagen I; AcMC + 2 mg/ml): 46.2 % of AcMC condition | Procollagen I secretion, Values (procollagen I; AcMC + 2 mg/ml): 47.0 % of AcMC condition and 40.2 % of AcMC condition and 51.2 % of AcMC condition | Procollagen I secretion compared to the AcMC control condition fixed at 100% (procollagen I; 1 mg/ml): 49.9% | Procollagen I secretion compared to the AcMC control condition fixed at 100% (procollagen I; 2 mg/ml): 46.2%
